Molecules are shown by their SMILES. pIC50: −log10 of the molar value. Where two headings read alike, the source gives them in different places.

We go through six compounds from patent US11298358B2, “Combination therapy using ascochlorin derivative” (priority 2017, dated 2022).

Data set [1] can be described thus: Stability against human liver microsomes. Format: in vitro ADME. To be noted: 2 μM compound. As for the experimental part: (§1) Determination of Stability Against Mouse and Human Microsomes
(§2) Pooled human liver microsomes (Cat. 452161; Lot. 23418) were purchased from Corning and pooled male mouse liver microsomes (Cat. M1000; Lot. 1210302) were purchased from Xenotech. Microsomes were stored at −80° C. prior to use. 40 μL of ultra-pure H2O was used instead of NADPH solution in the negative control. The negative control was used to exclude the misleading factor that was resulted from instability of chemical itself. Samples with NADPH were prepared in duplicate. Negative controls were prepared in singlet.
(§3) The reaction was started with the addition of 4 μL of 200 μM compound solution to each master solution to get the final concentration of 2 μM. Verapamil was used as positive control in the assay. Aliquots of 50 μL were taken from the reaction solution at 0, 15, 30, 45 and 60 min. The reaction was stopped by addition of 4 volumes of cold acetonitrile with IS (200 nM imipramine, […] labetalol and 2 μM ketoprofen). Samples were centrifuged at 3,220 g for 40 minutes. Aliquot of 90 μL of the supernatant was mixed with 90 μL of ultra-pure H2O and then was used for LC-MS/MS analysis. Results are shown in Table 3 by indicating remaining % of the test compound after 60 minutes incubation with liver microsomes from human and mouse in the presence of NADPH.
Background: Microsomes from liver hold many membrane-bound enzymes, among them those of drug oxidation.

The nature of data set [2]: Stability against mouse liver microsomes. Format: in vitro ADME. To be noted: 2 μM compound. As for the experimental part: as §1, §2, §3
Another data set has as its system A549. As to the kind of experiment: Anti-proliferative activity, CellTiterGlo assay, A549. It counts as cell-based. The settings on record: Homo sapiens; A549, 96 hrs incubation; read-out: Antiproliferative activities (IC50) A549. The procedure:
(§4) The anti-proliferative activities of the compounds against 6 human cancer cell lines were determined by CellTiterGlo assay kit. All cells were obtained from ATCC and cultured as recommended by the vendor. Cells were assayed in exponential growth phase. Sample solution was prepared by 3-fold serial dilution from 30 mM stock for 10 doses in DMSO. Antiproliferative activities were measured by CellTiterGlo assay kit according to the protocol after cells were incubated for 96 hrs in a 37° C., 5% CO2 incubator.
(§5) On the 4th day of incubation, i) 15 μl reagent (CelltiterGlo assay kit) was added per well and plate was shaken (avoiding light) for 2 mins on a plate shaker, ii) the plate was kept (avoiding light) in room temperature for 30 min, and iii) the luminescence value was recorded by Multiplate reader.
On the technique in general: Cellular ATP, detected with luciferase, serves as a proxy for viable cell number.

A further data set has as its system HT29. The data set can be described thus: Anti-proliferative activity, CellTiterGlo assay, HT29. It counts as cell-based. The settings on record: Homo sapiens, HT-29; HT29, 96 hrs incubation; read-out: Antiproliferative activities (IC50) HT29. As for the experimental part: as §4, §5
The next data set deals with BxPC-3. The data set can be described thus: Anti-proliferative activity, CellTiterGlo assay, BxPC-3. The settings on record: Homo sapiens; BxPC-3, 96 hrs incubation; read-out: Antiproliferative activities (IC50) BxPC-3. It counts as cell-based. As for the experimental part: as §4, §5
A further data set has as its system LNCaP. The data set can be described thus: Anti-proliferative activity, CellTiterGlo assay, LNCaP. The settings on record: Homo sapiens, 96 hrs incubation, read-out: Antiproliferative activities (IC50) LNCaP. Format: cell-based. As for the experimental part:
as §4, §5

The subject of another data set is MDA-MB-231. The data set can be described thus: Anti-proliferative activity, CellTiterGlo assay, MDA-MB-231. It counts as cell-based. The settings on record: Homo sapiens; MDA-MB-231, 96 hrs incubation; read-out: Antiproliferative activities (IC50) MDA-MB-231. As for the experimental part:
as §4, §5

The next data set relates to U87-MG. As to the kind of experiment: Anti-proliferative activity, CellTiterGlo assay, U87-MG. It counts as cell-based. To be noted: Homo sapiens, U-87 MG, 96 hrs incubation, read-out: Antiproliferative activities (IC50) U87-MG. The procedure: as §4, §5
Another data set has as its system CT26 tumor cells. The data set can be described thus: Efficacy study in CT26 syngeneic mouse model. It counts as in vivo. To be noted: for antitumor activity (in words): Cmpd 19 alone. The procedure:
An efficacy study was conducted by using Compound 19 (Cmpd 19) with CT26 syngeneic mouse model. Female BALB/c mice (Vital River, Beijing, China) of 7 to 9 weeks old with body weight between 19 and 21 g were used. Each mouse was inoculated subcutaneously on the right flank with CT26 tumor cells (2×10^5) in 0.1 mL of PBS for tumor development. On Day 5 after tumor inoculation, mice were randomized into groups. Each group consisted of 10 tumor-bearing mice. The treatment with Cmpd 19 was then started on Day 5.
As an anti PD-1 antibody, anti-mouse PD-1 antibody (CD279, Clone: RMP1-14, Catalog #: BE0146 from Bio X Cell) was used.
The measurement of tumor size was conducted three times weekly with calipers, and the tumor volume (mm^3) is estimated using the formula: TV=(a×b^2)/2, where “a” and “b” are long and short diameters of a tumor, respectively. The TVs were used for calculation of the tumor growth inhibition (TGI, an indicator of antitumor effectiveness), using formula: TGI=(1−T/C)×100%, where “T” and “C” are the mean relative volumes (% tumor growth) of the tumors in the treated and the control groups. Data were analyzed using GraphPad Software and represented as the mean value±SD in FIG. 3 in which error bars are shown. The p values were assessed using One-Way ANOVA Dunnett test and vehicle control (G1) as control group. A case with p<0.05 was considered as statistically significant.

The subject of the next data set is AMPK in HepG2 cell. To be noted: HepG2 cells, reported in the literature; cited from earlier work.
Data set [3] in a line: Solubility in pH4.0 and pH7.4 phosphate buffer solution. To be noted: 2 hr incubation, 25° C.
Description: 1) Preparation of Stock Solutions
The stock solutions of test compounds and positive control compound were prepared in DMSO at the concentration of 30 mM. Diclofenac was used as positive control in the assay.
2) Procedures for Solubility Determination
The stock solution of each compound (10 μL) was placed in order into their proper 96-well rack, followed by adding 990 μL of PBS at pH 4.0 and pH 7.4 into each vial of the cap-less Solubility Sample plate. This study was performed in duplicate. One stir stick was added to each vial and then vials were sealed using a molded PTDE/SIL 96-Well Plate Cover. The Solubility Sample plate was transferred to the Thermomixer Comfort plate shaker and incubated at 25° C. for 2 hours with shaking at 1,100 rpm. After 2 hours incubation, stir sticks were removed using a big magnet and all samples from the Solubility Sample plate were transferred into the filter plate. All the samples were filtered by using the vacuum manifold. The filtered samples were diluted with methanol.
3) Samples Analyzed by LC-MS/MS:
The LC system comprised a Shimadzu liquid chromatograph separation system equipped with degasser DGU-20A3, solvent delivery unit LC-20AD, system controller CBM-20A, column oven CTO-10ASVP and CTC Analytics HTC PAL System. Mass spectrometric analysis was performed using an API 4000 instrument from AB Inc (Canada) with an ESI interface.
Where [4] appears, read: G3: Cmpd 19 50 mg/kg p.o. once a day x 18.
Setting [5] is: G4: Cmpd 19 25 mg/kg p.o. once a day x 18.

One may read the pIC50 as the negative decadic logarithm of the IC50, by convention in mol/L. For `COc1c(Cl)c(C)c(/C=N/O)c(O)c1C/C=C(C)/C=C/[C@@]1(C)[C@H](C)CC[C@](C)(O)[C@@H]1C` [Compound 7, 4-chloro-2-[(2E,4E)-5-[(1R,2R,3S,6R)-3-hydroxy-1,2,3,6-tetramethylcyclohexyl]-3-methylpenta-2,4-dien-1-yl]-6-[(1E)-(hydroxyimino)methyl]-3-methoxy-5-methylphenol], in data set [1], the “Liver microsome stability remaining % after 60 min incubation with NADPH, human LM” value is listed as 71%. In addition, in data set [2], the “Liver microsome stability remaining % after 60 min incubation with NADPH, mouse LM” value was 71%. Further, the pIC50 was 5.19 in the data set on A549; 5.00 in the data set on HT29; 4.89 in the data set on BxPC-3; 5.14 in the data set on LNCaP; 5.17 with MDA-MB-231; 4.88 with U87-MG.
Turning to `CO/N=C/c1c(C)c(Cl)c(OC)c(C/C=C(C)/C=C/[C@@]2(C)[C@H](C)CC[C@](C)(O)[C@@H]2C)c1O` [Compound 14, 4-chloro-2-[(2E,4E)-5-[(1R,2R,3S,6R)-3-hydroxy-1,2,3,6-tetramethylcyclohexyl]-3-methylpenta-2,4-dien-1-yl]-3-methoxy-6-[(1E)-(methoxyimino)methyl]-5-methylphenol], in data set [1], the “Liver microsome stability remaining % after 60 min incubation with NADPH, human LM” value is given as 99%. In data set [2], the “Liver microsome stability remaining % after 60 min incubation with NADPH, mouse LM” value was 88%.
As for `CO/N=C/c1c(C)c(Cl)c(OC)c(C/C=C(C)/C=C/[C@@]2(C)[C@H](C)CC/C(=N\OCC(=O)O)[C@@H]2C)c1O` [Compound 19, 2-([[(1E,2R,3R,4R)-3-[(1E,3E)-5-[3-chloro-6-hydroxy-2-methoxy-5-[(1E)-(methoxyimino)methyl]-4-methylphenyl]-3-methylpenta-1,3-dien-1-yl]-2,3,4-trimethylcyclohexylidene]amino]oxy)acetic acid], the “antitumor activity (in words)” value in the data set on CT26 tumor cells (25 mg/kg p.o.) and in the data set on CT26 tumor cells (50 mg/kg p.o.) was “minor or no antitumor activity” in each case. Moreover, the figures for the “TGI (%)” value with CT26 tumor cells (setting [4]) and in the data set on CT26 tumor cells (setting [5]) were −1.4% and 6.5%, respectively. The “Tumor volume (mm^3, on Day 23)” value is 6,483 ± 310 mm^3 in the data set with CT26 tumor cells (setting [4]) and 6,056 ± 689 mm^3 in the data set with CT26 tumor cells (setting [5]).
`COc1c(Cl)c(C)c(C=O)c(O)c1C/C=C(C)/C=C/[C@@]1(C)[C@H](C)CCC(=O)[C@@H]1C` [MAC, 4-O-Methy-ascochlorin]: the “Solubility pH 4.0 PBS” value (pH 4) was less than 0.08 μM. Moreover, the “Solubility pH 7.4 PBS” value (pH 7.4) is given as 0.07 μM. Besides, in the data set on AMPK in HepG2 cell, the “AMPK activation in HepG2 cell” value is listed as “ability for activating AMPK”.
As to `CN(C)C(=N)N=C(N)N` [Metformin], in the data set with AMPK in HepG2 cell, the “AMPK activation in HepG2 cell” value was “only at surprisingly high concentration of mM level”.
As for `COc1c(Cl)c(C)c(C=NCC(N)=O)c(O)c1C/C=C(C)/C=C/[C@@]1(C)[C@H](C)CCC(=O)[C@@H]1C` [compound #13 in WO2004/074236], the “Solubility pH 4.0 PBS” value in data set [3] (pH 4.0 phosphate buffer solution) was “converted to MAC”. For the same compound, the “Solubility pH 7.4 PBS” value in data set [3] (pH 7.4 phosphate buffer solution) is listed as 0.02 μM.
